Assay results taken from patent US20130344501A1, “METHODS FOR PRODUCING THREE-DIMENSIONAL PHYSIOLOGICALLY RELEVANT IMMUNE TISSUE SYSTEMS UNDER LOW FLUID SHEAR CONDITIONS” (priority 2010, published 2013).

Columns and labels:
U937 cells = assay: Phagocytosis of 2 μm fluorescent beads by PMA-differentiated U937 macrophages; assay type: cell-based, human; conditions: U937 monocytes exposed to 10^−8M PMA for 48 hours; undifferentiated monocytes could not phagocytose
Description: (§1) To obtain differentiated macrophages, U937 monocytes were exposed to 10^−8M PMA (originating from a 10^−3M stock in DMSO) (Sigma-Aldrich) for 48 hours. Exposure of monocytes to phorbol esters induces morphological, physiological and molecular characteristics of terminally differentiated macrophages (Rovera et al., 1979, Prieto et al., 1994). For CLSM staining purposes, monocytes were differentiated with PMA and A549 cells were grown in 6-well plates containing sterile coverslips. For CLSM staining of undifferentiated U937, cytodex-3 beads (5 mg/ml) were added to the culture medium, allowing adhesion of U937 to the beads and facilitation of the staining procedure.
The phagocytosis activity of monocytes and macrophages cultured alone or co-cultured with A549 cells in three-dimensional was assessed based on the uptake of bacterial-sized 2 μm fluorescent […] beads (Fluoresbrite plain YG, Polysciences). The phagocytosis assay was performed as previously described (Gao et al., 2010).

ICAM-1 on U937 cells = assay: ICAM-1 labeling of PMA-differentiated U937 macrophages, confocal laser scanning microscopy; assay type: cell-based, human; conditions: U937 monocytes exposed to 10^−8M PMA for 48 hours; monocytes alone stained weakly positive
Description: as §1
The antibodies used for CLSM imaging in the present study were from mouse origin and targeted the human CD45 (Abcam), ICAM-1 (Abcam), MUC5AC (Invitrogen), ZO-1 (Invitrogen) and β-catenin (Chemicon). All primary antibodies were used in a dilution of 1:50. ICAM-1 was the only directly labeled antibody used for CLSM staining and was conjugated with phycoerythrin (PE). […]
Optical sections of the three-dimensional aggregates and monolayers were obtained using a Zeiss LSM 510 Duo laser scanning microscope equipped with detectors and filter sets for monitoring emissions of the selected fluorophores. Images were acquired using a Plan-Neofluar 40×/1.3 oil DIC objective and were analyzed with the Zeiss LSM software package. […]

Structure (SMILES): CCCCCCCCCCCCCC(=O)O[C@@H]1[C@@H](C)[C@@]2(O)[C@@H](C=C(CO)C[C@]3(O)C(=O)C(C)=C[C@@H]23)[C@@H]2C(C)(C)[C@]12OC(C)=O [PMA, phorbol 12-myristate 13-acetate]
- phagocytosis of 2 μm fluorescent beads (U937 cells): engulfment of one-to-multiple beads
- ICAM-1 labeling of differentiated macrophages (ICAM-1 on U937 cells): strong ICAM-1 labeling
